This is an account of results in the NIST ThermoML archive (doi:10.1021/je100341q).

± gives the expanded uncertainty stated by the source.

For data set [1] the following is noted: for Normal melting temperature: Crystal, DTA; for mass density: 293.15 K, 101.33 kPa, Liquid, Pycnometric method.
A short description of data set [2]: Molar enthalpy of transition or fusion. The following applies: Crystal; DSC.
Data set [3] is described as follows: refractive index (Na D-line) (dimensionless). The following applies: 293.15 K; 101.33 kPa; Liquid; Standard Abbe refractometry.

On to `O=P1(O)OCC2(CO1)COP(=O)(O)OC2` (stereo not given), for which, in data set [1], the Normal melting temperature was found to be 310.57 ± 0.5 °C. In addition, the “Molar enthalpy of transition or fusion” value in data set [2] turned out to be 5.37 ± 0.17 kcal/mol.
The like results for `O=P1(Oc2ccccc2)OCC2(CO1)COP(=O)(Oc1ccccc1)OC2` (stereo not given) were, in that order, 196.43 ± 0.5 °C and 8.71 ± 0.239 kcal/mol.
Broadly, the mass density is the mass of a sample divided by its volume. As a reminder, the refractive index is a measure of how strongly the sample bends light. Consider `C1COCCO1` [1,4-dioxane], for which the mass density in data set [1] stood at 1034 ± 1 kg/m3. The refractive index in data set [3] is 1.4175 ± 0.0008.
With `CCOCCO` [2-ethoxyethan-1-ol], the mass density in data set [1] amounted to 929 ± 1 kg/m3. Moreover, the refractive index in data set [3] came out at 1.4065 ± 0.0007.
In the case of `O=C(O)CCP(=O)(O)c1ccccc1` [3-(hydroxy(phenyl)phosphoryl)propanoic acid], in data set [1], the Normal melting temperature was 159.51 ± 0.5 °C. The “Molar enthalpy of transition or fusion” value in data set [2] turned out to be 8.03 ± 0.232 kcal/mol.
The like results for `O=P(O)(CO)c1ccccc1` [(hydroxymethyl)(phenyl)phosphinic acid] were, in that order, 140.2 ± 0.5 °C and 6.49 ± 0.196 kcal/mol.
As to `CC(=O)O` [acetic acid], the mass density in data set [1] amounted to 1049 ± 1 kg/m3. In addition, in data set [3], the refractive index came to 1.3716 ± 0.0007.
As to `CC(C)=O` [acetone], the mass density in data set [1] worked out at 790 ± 1 kg/m3. Besides, the refractive index in data set [3] came out at 1.359 ± 0.0007.
Take `CC#N` [acetonitrile]: the mass density in data set [1] was 783 ± 1 kg/m3. Moreover, the refractive index in data set [3] amounted to 1.343 ± 0.0007.
The like results for `c1ccccc1` [benzene] were, in that order, 879 ± 1 kg/m3 and 1.5011 ± 0.0007.
`CCC(C)=O` [butanone]: the mass density in data set [1] was 805 ± 1 kg/m3. The refractive index in data set [3] was 1.3788.
The like results for `C1CCCCC1` [cyclohexane] were, in that order, 779 ± 1 kg/m3 and 1.4266 ± 0.0007.
As for `ClCCl` [dichloromethane], in data set [1], the mass density was 1321 ± 1 kg/m3. Also, the refractive index in data set [3] is recorded as 1.4237 ± 0.0007.
Take `CCOCC` [diethyl ether]: the mass density in data set [1] is on record as 714 ± 1 kg/m3. For the same compound, in data set [3], the refractive index amounted to 1.3497 ± 0.0007.
Turning to `CCO` [ethanol], the mass density in data set [1] turned out to be 790 ± 1 kg/m3. Further, the refractive index in data set [3] is given as 1.366 ± 0.0007.
In the case of `CCOC(C)=O` [ethyl acetate], the mass density in data set [1] is on record as 899 ± 1 kg/m3. Besides, the refractive index in data set [3] is on record as 1.3719 ± 0.0007.
The like results for `CO` [methanol] were, in that order, 792 ± 1 kg/m3 and 1.3301 ± 0.0007.
Take `c1ccncc1` [pyridine]: the mass density in data set [1] was determined as 983 ± 1 kg/m3. Also, the refractive index in data set [3] is 1.5095 ± 0.0007.
On to `C1CCOC1` [tetrahydrofuran], for which the refractive index in data set [3] came to 1.405 ± 0.0008.
Consider `Cc1ccccc1` [toluene], for which, in data set [1], the mass density was determined as 866 ± 1 kg/m3. Further, in data set [3], the refractive index was determined as 1.4967 ± 0.0007.
The like results for `ClC(Cl)Cl` [trichloromethane] were, in that order, 1484 ± 2 kg/m3 and 1.4476 ± 0.0007.
With `COc1ccc(P(c2ccc(OC)cc2)c2ccc(OC)cc2)cc1` [tris(4-methoxyphenyl)phosphane], in data set [1], the Normal melting temperature is 130.67 ± 0.5 °C. Further, the “Molar enthalpy of transition or fusion” value in data set [2] came to 6.14 ± 0.186 kcal/mol.
Regarding `COc1ccc(P(=O)(c2ccc(OC)cc2)c2ccc(OC)cc2)cc1` [tris(4-methoxyphenyl)phosphine oxide], the Normal melting temperature in data set [1] turned out to be 144.69 ± 0.5 °C. In addition, the “Molar enthalpy of transition or fusion” value in data set [2] amounted to 6.82 ± 0.194 kcal/mol.
